Experimental data published in paper PMC10690091 (Cancer Research, 2023).

Tested on: uterus (ER agonism)
Assay: Juvenile rat uterine model
Type: in vivo
Conditions: juvenile rats, 10 mg/kg once-daily, 3 days
Method: by western blot. ER or PR protein levels are expressed relative to the AZD9496 100 nM level. B) Juvenile female rats were treated with the indicated dose of compound for 3 days. Twenty-four hours after the last dose, the uterus was removed. Uterine horns were processed for hematoxylin and eosin staining. The morphology of the endometrial epithelium tissue was assessed by a pathologist with representative images shown. C, D) The uterine horn was weighed after removal and the epithelial area was calculated via computational pathology. Data points represent individual animals. Lines represent geometric mean ± 95% CI. * Tamoxifen vehicle, ** SERDs vehicle.
CI, confidence interval; ER, estrogen receptor; PR, progesterone receptor. […]
mode. The resulting chromatographic peaks were integrated in TargetLynx (Waters). […]
using Cell Titer Glo (CTG, Promega).
An untreated plate was read on […]
Animals were euthanized 24 hours after the last dose, and the uterus excised and removed from the cervix, with the horns still connected (sampling just above the cervix), and all visible excess fat was removed. A small incision was made around half-way along each horn, the horns were blotted on filter paper to remove fluids, and their weights recorded. […]
Tissues sections were analyzed with HALO image analysis software (Indica Labs v3.4). […] Percentage of individual animals’ epithelial area was calculated. […]

## C[C@@H]1Cc2c(ccc3[nH]ncc23)[C@@H](c2ccc(NC3CN(CCCF)C3)cn2)N1CC(F)(F)F [camizestrant]
  uterine weight and endometrial epithelium area: slightly reduced uterine weight and endometrial epithelium area
